Test results: article PMC10138577, “Prenylated Flavonoids with Selective Toxicity against Human Cancers” (International Journal of Molecular Sciences, 2023)

Key:
Format in all cases: cell-based
[1] = tested on: T47D human breast ductal carcinoma cells; assay: In vitro antiproliferative assay (SRB), T47D; settings: for IC50: Homo sapiens, T47D, 72 h exposure, SRB, mean ± SD; for Calculated selectivity index SIB: IC50 BALB/3T3/IC50 T47D; for Calculated selectivity index SIA: IC50 HLMEC/IC50 T47D
Text: (§1) The following established in vitro cell lines were applied: human breast adenocarcinoma (MCF-7 and SK-BR-3), human breast ductal carcinoma (T47D), human prostate adenocarcinoma (PC-3), human prostate carcinoma (Du145), human colorectal adenocarcinoma (HT-29 and LoVo), doxorubicin-resistant human colorectal adenocarcinoma (LoVo/Dx), human myelomonocytic leukemia (MV-4-11), human lung adenocarcinoma (A549), normal murine embryonic fibroblasts (BALB/3T3) and human lung microvascular endothelial (HLMEC). All the cell lines were obtained from the American Type Culture Collection (Rockville, MD, USA) except for LoVo and LoVo/DX, which were received from the Technical University of Gdańsk, Poland, courtesy of Prof. E. Borowski. All the cell lines were maintained in the Institute of Immunology and Experimental Therapy, Wroclaw, Poland. The cells were cultured in the following media: DMEM medium (BALB/3T3), Eagle medium (MCF-7, SK-BR-3, Du145), RPMI medium (HLMEC, MV-4-11) or RPMI 1640 + Opti-MEM (1:1) medium (A549, T47D, LoVo, LoVo/Dx, PC-3, HT-29). The DMEM medium was supplemented with 2 mM L-glutamine and 10% fetal bovine serum. The Eagle medium was supplemented with 4 mM L-glutamine, 10% fetal bovine serum, 1 mM sodium pyruvate for Du145 cells or 2 mM L-glutamine, 1% amino acids and 0.8 mg L^−1 of insulin for MCF-7 and SK-BR-3. The RPMI medium was supplemented with 2 mM L-glutamine, 1 mM sodium pyruvate and 10% fetal bovine serum. The RPMI 1640 + Opti-MEM (1:1) medium was supplemented with 2 mM L-glutamine, 5% fetal bovine serum (PC-3, A549) and 0.8 mg L^−1 insulin (T47D) or 1 mM sodium pyruvate (HT-29, LoVo, LoVoDx) and 0.1 ug/mL doxorubicin (LoVo/Dx). The media contained antibiotics: 100 µg mL^−1 streptomycin and 100 U mL^−1 penicillin. All the cell lines were incubated at 37 °C in a humid atmosphere saturated with 5% CO2.
(§2) The details of this technique were described by Skehan et al.. After 72 h of incubation with the tested compounds, the cells were fixed in situ by gently adding cold 50% trichloroacetic acid—TCA (50 µL per well). The plates were incubated at 4 °C for 1 h and then washed five times with tap water and air-dried. Next, the cellular material fixed with TCA was stained by adding 50 µL of 0.4% sulforhodamine B dissolved in 1% acetic acid to each well and incubating the wells for 30 min at room temperature. The unbound dye was removed by washing the plates five times with 1% acetic acid, whereas the stain bound to the cells was extracted with 150 µL of 10 mM unbuffered Tris base for determination of the optical density at a 540 nm wavelength in a computer-interfaced, 96-well microtiter plate reader–Multiskan FC photometer (Thermo Scientific, Waltham, MA, USA). The background optical density was measured in the wells filled with culture medium, without the cells.
(§3) Twenty-four hours before incubation with the tested compounds, the cells were seeded in 96-well plates (Sarstedt, Nümbrecht, Germany) at a density of 10^4 cells per well (10^3 cells per well for HLMEC) in 100 µL of culture medium. The analysis of the antiproliferative activity of the compounds was performed using sulforhothamine B (SRB) (for all the adherent cells) or 3-(4,5-dimethylthiazol-2-yl)-2,5-diphenyl tetrazolium bromide (MTT) (for the leukemia cells—MV-4-11). The details of this technique have been previously described by Skehan et al. and Antoszak et al.. An assay was performed after 72 h of exposure at varying concentrations (from 0.1 to 100 µg mL^−1) of xanthohumol (1), aurone (2) and the reference drug cisplatin. Each compound at each concentration was tested in a single experiment, which was repeated at least 3 times. […] The results were calculated as the IC50 (μM) (half maximal inhibitory concentration), i.e., the concentration of the tested agent that inhibits the proliferation of the cancer cell population by half. […]

[2] = tested on: SK-BR-3 human breast adenocarcinoma cells; assay: In vitro antiproliferative assay (SRB), SK-BR-3; settings: for IC50: Homo sapiens, SK-BR-3, 72 h exposure, SRB, mean ± SD; for Calculated selectivity index SIB: IC50 BALB/3T3/IC50 SK-BR-3; for Calculated selectivity index SIA: IC50 HLMEC/IC50 SK-BR-3
Text: as §1, §2, §3

[3] = tested on: MV-4-11 human myelomonocytic leukemia cells; assay: In vitro antiproliferative assay (MTT), MV-4-11; settings: for IC50: Homo sapiens, MV4-11, MV-4-11, 72 h exposure, MTT, mean ± SD; for Calculated selectivity index SIB: IC50 BALB/3T3/IC50 MV-4-11; for Calculated selectivity index SIA: IC50 HLMEC/IC50 MV-4-11
Text: as §1
The details of this technique were described by Antoszczak et al.. The proliferation inhibition of human myelomonocytic leukemia (MV-4-11) by the tested compounds was measured using the MTT assay. Thus, 20 µL of 3-(4,5-dimethylthiazol-2-yl)-2,5-diphenyl tetrazolium bromide solution was added to each well. Then, the plates were incubated for 4 h in a cell incubator to allow the cells to metabolize the yellow MTT to blue formazan. Next, 80 µL of lysing mixture (consisting of 67.5 g sodium dodecyl sulfate, 225 mL dimethylformamide and 275 mL distilled water) was added to each well. The plates were incubated for 24 h for the formazan crystals to be released from the cells and dissolved, and then the absorbance of each well was read on a 96-well microtiter plate reader (Multiskan FC photometer (Thermo Scientific)) at a 570 nm wavelength.
Twenty-four hours before incubation with the tested compounds, the cells were seeded in 96-well plates (Sarstedt, Nümbrecht, Germany) at a density of 10^4 cells per well (10^3 cells per well for HLMEC) in 100 µL of culture medium. The analysis of the antiproliferative activity of the compounds was performed using sulforhothamine B (SRB) (for all the adherent cells) or 3-(4,5-dimethylthiazol-2-yl)-2,5-diphenyl tetrazolium bromide (MTT) (for the leukemia cells—MV-4-11). The details of this technique have been previously described by Skehan et al. and Antoszak et al.. An assay was performed after 72 h of exposure at varying concentrations (from 0.1 to 100 µg mL^−1) of xanthohumol (1), aurone (2) and the reference drug cisplatin. Each compound at each concentration was tested in a single experiment, which was repeated at least 3 times. […] The results were calculated as the IC50 (μM) (half maximal inhibitory concentration), i.e., the concentration of the tested agent that inhibits the proliferation of the cancer cell population by half. The IC50 values and the mean values ± SD calculated for each experiment separately using GraphPad Prism software (GraphPad Software 9.1.0, San Diego, CA, USA) are presented in Table S1 in the Supplementary Materials.

[4] = tested on: MCF-7 human breast adenocarcinoma cells; assay: In vitro antiproliferative assay (SRB), MCF-7; settings: for IC50: Homo sapiens, MCF7, MCF-7, 72 h exposure, SRB, mean ± SD; for Calculated selectivity index SIB: IC50 BALB/3T3/IC50 MCF-7; for Calculated selectivity index SIA: IC50 HLMEC/IC50 MCF-7
Text: as §1, §2, §3

[5] = tested on: HT-29 human colorectal adenocarcinoma cells; assay: In vitro antiproliferative assay (SRB), HT-29; settings: for IC50: HT-29, 72 h exposure, SRB, mean ± SD; for Calculated selectivity index SIB: IC50 BALB/3T3/IC50 HT-29; for Calculated selectivity index SIA: IC50 HLMEC/IC50 HT-29
Text: as §1, §2, §3

| IC50 [1] | IC50 [2] | IC50 [3] | IC50 [4] | IC50 ([5]; listed as aurone (2)) | IC50 ([5]; Homo sapiens, HT-29, 72 h) | IC50 ([5]; listed as xanthohumol (1)) | Compound | Calculated selectivity index SIB [1] | Calculated selectivity index SIA [1] | Calculated selectivity index SIB [2] | Calculated selectivity index SIA [2] | Calculated selectivity index SIB [3] | Calculated selectivity index SIA [3] | Calculated selectivity index SIB [4] | Calculated selectivity index SIA [4] | Calculated selectivity index SIB [5] | Calculated selectivity index SIA [5] |
| --- | --- | --- | --- | --- | --- | --- | --- | --- | --- | --- | --- | --- | --- | --- | --- | --- | --- |
| 8.09 ± 2.21 µM | 11.3 ± 0.17 µM | 7.45 ± 0.87 µM | 9.28 ± 0.5 µM | 62.1 ± 16.5 µM | > 50 µM |  | COc1cc(O)c(CC=C(C)C)c2c1C(=O)/C(=C/c1ccc(O)cc1)O2 [compound 2, (Z)-6,4′-dihydroxy-4-methoxy-7-prenylaurone] | 5.50 | 6.53 | 3.93 | 4.67 | 5.97 | 7.09 | 4.79 | 5.69 | 0.72 | 0.85 |
| 8.27 ± 1.23 µM | 12.6 ± 2.28 µM | 8.07 ± 0.52 µM | 9.29 ± 0.27 µM |  | > 50 µM | 91.3 ± 8.92 µM | COc1cc(O)c(CC=C(C)C)c(O)c1C(=O)/C=C/c1ccc(O)cc1 [compound 1, 3′-[3″,3″-dimethylallyl]-2′,4′,4-trihydroxy-6′-methoxychalcone] | 2.37 | 4.39 | 1.56 | 2.89 | 2.43 | 4.50 | 2.11 | 3.91 | 0.21 | 0.40 |
